Patent publication US9546401B2, “Assays and methods for selecting a treatment regimen for a subject with depression” (The General Hospital Corporation, priority 2011, dated 2017)
Like-named read-outs stand apart in the source and are kept apart here. Marks after values point to notes of the source that are not given here.

Test system: MDD patients carrying the indicated biomarkers
Conditions: for Effect on change in HAMD-28 score / Effect on change in HAMD-17 score: Pooled phases
Procedure: Folate levels are classified as either low (<=2.5 ng/ml) or normal; and homocysteine levels as either normal or elevated (>=[…]). The presence or absence of at least one […] allele for the MTHFR gene are entered as a dichotomous variable (present or absent). […] Using folate as an example predicator, the presence or absence of a low serum-folate level along with treatment assignment can be entered in a 2×2, factorial ANOVA, using depression improvement scores (baseline minus endpoint HAM-D-17 scores) as the dependant variable. […] Similar analyses (i.e. separate 2×2 ANOVA's) can be performed substituting the presence of low folate levels for the presence of other predictors as described herein. Similarly, the effect of other predictors can be indicated by the interaction term representing the potential modulating influence of those variables.
The efficacy effect is determined by measuring the mean change in the HAMD-17 score and HAMD-28 score by the end of Phase I and Phase II, as compared to the baseline.

[1] = BMI < 30 kg/m^2 and HNE-His < median
[2] = BMI < 30 kg/m^2 and SAM/SAH >= median
[3] = BMI >= 30 kg/m^2 and HNE-His >= median
[4] = BMI*treat (interaction of BMI with the treatment)
[5] = MTHFR 677 CC and BMI < 30 kg/m^2
[6] = MTHFR 677 CT or TT and BMI >= 30 kg/m^2
[7] = MTHFR 677 CT or TT and HNE-His >= median
[8] = MTR 2756 AA and BMI < 30 kg/m^2
[9] = MTR 2756 AA and HNE-His < median
[10] = MTR 2756 AA and MTRR 66 AA and SAM/SAH >= median
[11] = MTR 2756 AA and SAM/SAH >= median
[12] = MTR 2756 AG or GG and BMI >= 30 kg/m^2
[13] = MTR 2756 AG or GG and MTRR 66 AG or GG
[14] = MTR 2756 AG or GG and MTRR 66 AG or GG and HNE-His >= median
[15] = MTRR 66 AA and SAM/SAH >= median
[16] = MTRR 66 AG or GG and HNE-His >= median
[17] = SAM/SAH < median and HNE-His >= median
[18] = SAM/SAH >= median and HNE-His < median

CN1c2c(nc(N)[nH]c2=O)NC[C@@H]1CNc1ccc(C(=O)N[C@@H](CCC(=O)O)C(=O)O)cc1 [6(S)-5-MTHF, 6(S)-5-methyltetrahydrofolate]
Effect on change in HAMD-28 score (BMI < 25): −1.018
Effect on change in HAMD-17 score [1]: 4.738
Effect on change in HAMD-28 score [1]: 4.253
Effect on change in HAMD-17 score [2]: 2.583
Effect on change in HAMD-28 score [2]: 2.906
Effect on change in HAMD-17 score (BMI >= 30 kg/m^2): −4.600
Effect on change in HAMD-28 score (BMI >= 30 kg/m^2): −4.660
Effect on change in HAMD-17 score [3]: −5.420
Effect on change in HAMD-28 score [3]: −5.996
Effect on change in HAMD-17 score (BMI >= 30 kg/m^2 and SAM/SAH < median): −7.302
Effect on change in HAMD-28 score (BMI >= 30 kg/m^2 and SAM/SAH < median = 2.71 (plasma)): −7.572
Effect on change in HAMD-17 score [4]: −0.233
Effect on change in HAMD-28 score [4]: −0.270
Effect on change in HAMD-17 score [5]: 1.356
Effect on change in HAMD-28 score [5]: −0.234
Effect on change in HAMD-17 score (MTHFR 677 CC and HNE-His < median): −1.050
Effect on change in HAMD-28 score (MTHFR 677 CC and HNE-His < median = 3.28 (plasma)): −1.340
Effect on change in HAMD-17 score [6]: −8.090
Effect on change in HAMD-28 score [6]: −9.884
Effect on change in HAMD-17 score [7]: −9.446
Effect on change in HAMD-28 score [7]: −9.865
Effect on change in HAMD-17 score (MTR 2756 AA): −0.590
Effect on change in HAMD-28 score (MTR 2756 AA): −0.047
Effect on change in HAMD-17 score [8]: 3.196
Effect on change in HAMD-28 score [8]: 3.352
Effect on change in HAMD-17 score [9]: 1.319
Effect on change in HAMD-28 score [9]: 2.085
Effect on change in HAMD-17 score (MTR 2756 AA and MTRR 66 AA): −1.373
Effect on change in HAMD-28 score (MTR 2756 AA and MTRR 66 AA): −3.032
Effect on change in HAMD-17 score (MTR 2756 AA and MTRR 66 AA and HNE-His < median): 0.466
Effect on change in HAMD-28 score (MTR 2756 AA and MTRR 66 AA and HNE-His < median = 3.28 (plasma)): −2.221
Effect on change in HAMD-17 score [10]: −3.98*
Effect on change in HAMD-28 score [10]: −3.74*
Effect on change in HAMD-17 score [11]: 0.054
Effect on change in HAMD-28 score [11]: −0.071
Effect on change in HAMD-17 score [12]: −11.714
Effect on change in HAMD-28 score [12]: −14.433
Effect on change in HAMD-17 score (MTR 2756 AG or GG and HNE-His >= median): −8.072
Effect on change in HAMD-28 score (MTR 2756 AG or GG and HNE-His >= median = 3.28 (plasma)): −9.508
Effect on change in HAMD-17 score [13]: −6.976
Effect on change in HAMD-28 score [13]: −9.348
Effect on change in HAMD-17 score [14]: −7.942
Effect on change in HAMD-28 score [14]: −10.241
Effect on change in HAMD-17 score (MTR 2756 AG or GG and MTRR 66 AG or GG and SAM/SAH < median): −7.64*
Effect on change in HAMD-28 score (MTR 2756 AG or GG and MTRR 66 AG or GG and SAM/SAH < median = 2.71 (plasma)): −11.62*
Effect on change in HAMD-17 score (MTR 2756 AG or GG and SAM/SAH < median): −5.583
Effect on change in HAMD-28 score (MTR 2756 AG or GG and SAM/SAH < median = 2.71 (plasma)): −11.683
Effect on change in HAMD-17 score (MTR 2756 AG/GG): −5.677
Effect on change in HAMD-28 score (MTR 2756 AG/GG): −8.243
Effect on change in HAMD-17 score (MTRR 66 AA and HNE-His < median): 2.575
Effect on change in HAMD-28 score (MTRR 66 AA and HNE-His < median = 3.28 (plasma)): −2.626
Effect on change in HAMD-17 score [15]: −2.978
Effect on change in HAMD-28 score [15]: −1.221
Effect on change in HAMD-17 score [16]: −4.850
Effect on change in HAMD-28 score [16]: −6.582
Effect on change in HAMD-17 score (MTRR 66 AG or GG and SAM/SAH < median): −5.879
Effect on change in HAMD-28 score (MTRR 66 AG or GG and SAM/SAH < median = 2.71 (plasma)): −6.579
Effect on change in HAMD-17 score [17]: −9.898
Effect on change in HAMD-28 score [17]: −9.500
Effect on change in HAMD-17 score [18]: 2.107
Effect on change in HAMD-28 score [18]: 2.413
Effect on change in HAMD-28 score (SAM/SAH*treat, first line under HAMD28): 0.882
Effect on change in HAMD-17 score (baseHAMD-17*treat (interaction of base HAMD-17 with the treatment)): −0.025
improvement in HDRS-28 or CGI-S (at least one T allele (CT or TT) at MTHFR 677 versus no T allele, + SSRI): greater degree of improvement
improvement in HAMD-28 or CGI-S (obese (BMI at least 30 kg/m^2) versus non-obese patients, + SSRI): greater degree of improvement
mean change in HAMD-28 (patients carrying at least one G variant in the MTR gene only): about −8.2
mean change in HAMD-28 (patients carrying both MTHFR T and MTR G variants): about −23.3
